pKi: −log10 of the molar value.
Target: α7 nAChR subtype (Rattus norvegicus, UniProt Q05941)
Experiment: Test A: 125I-α-Bungarotoxin binding to rat hippocampal membranes (affinity at α7 nAChR subtype)
Settings: [125I]α-BTX displacement, rat hippocampal membranes
Method: Test A—Assay for Affinity at α7 nAChR subtype
125I-α-Bungarotoxin (BTX) binding to rat hippocampal membranes. Rat hippocampi were homogenized in 20 volumes of cold homogenization buffer (HB: concentrations of constituents (mM): tris(hydroxymethyl)aminomethane 50; MgCl2 1; NaCl 120; KCl 5: pH 7.4). The homogenate was centrifuged for 5 minutes at 1000 g, the supernatant was saved and the pellet re-extracted. The pooled supernatants were centrifuged for 20 minutes at 12,000 g, washed, and re-suspended in HB. Membranes (30-80 μg) were incubated with 5 nM [^125I] α-BTX, 1 mg/mL BSA (bovine serum albumin), test drug, and either 2 mM CaCl2 or 0.5 mM EGTA [ethylene glycol-bis(β-aminoethylether)] for 2 hours at 21° C., and then filtered and washed 4 times over Whatman glass fibre filters (thickness C) using a Brandel cell harvester.
Binding data analysis for Tests A and B
IC50 values and pseudo Hill coefficients (nH) were calculated using the non-linear curve fitting program ALLFIT (DeLean A, Munson P J and Rodbard D (1977) Am. J. Physiol., 235:E97-E102). […] Ki values were determined using 6 or more drug concentrations.

Chain of α7 nAChR subtype (Q05941 23-502): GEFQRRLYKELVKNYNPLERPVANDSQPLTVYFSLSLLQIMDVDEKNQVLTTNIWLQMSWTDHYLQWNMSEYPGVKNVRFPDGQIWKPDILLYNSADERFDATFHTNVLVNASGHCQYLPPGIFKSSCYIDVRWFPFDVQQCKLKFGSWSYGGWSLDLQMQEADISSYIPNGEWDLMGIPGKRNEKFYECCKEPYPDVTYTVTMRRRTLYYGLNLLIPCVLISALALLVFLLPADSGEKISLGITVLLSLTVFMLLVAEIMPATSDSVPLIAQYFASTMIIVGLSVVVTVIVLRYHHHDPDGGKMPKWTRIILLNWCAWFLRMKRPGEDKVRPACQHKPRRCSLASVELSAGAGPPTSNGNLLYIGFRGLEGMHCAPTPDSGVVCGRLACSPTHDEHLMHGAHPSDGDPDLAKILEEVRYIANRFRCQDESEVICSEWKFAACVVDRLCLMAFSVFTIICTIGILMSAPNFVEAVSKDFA

CC(=O)Nc1ccccc1-c1ccc2c(c1)C(=O)N([C@H]1CN3CCC1CC3)C2 [Example 65, N-[2-((R)-2-1-Aza-bicyclo[2.2.2]oct-3-yl-3-oxo-2,3-dihydro-1H-isoindol-5-yl)-phenyl]-acetamide]
pKi: 5.94

CCN(CC)C(=O)c1cccc(-c2ccc3c(c2)C(=O)N([C@H]2CN4CCC2CC4)C3)c1 [Example 66, 3-((R)-2-1-Aza-bicyclo[2.2.2]oct-3-yl-3-oxo-2,3-dihydro-1H-isoindol-5-yl)-N,N-diethyl-benzamide]
pKi: 7.70

O=C1c2cc(-c3cccc(OCc4ccccc4)c3)ccc2CN1[C@H]1CN2CCC1CC2 [Example 67, 2-(R)-1-Aza-bicyclo[2.2.2]oct-3-yl-6-(3-benzyloxy-phenyl)-2,3-dihydro-isoindol-1-one]
pKi: 7.29

O=C(c1cccc(-c2ccc3c(c2)C(=O)N([C@H]2CN4CCC2CC4)C3)c1)N1CCOCC1 [Example 68, 2-(R)-1-Aza-bicyclo[2.2.2]oct-3-yl-6-[3-(morpholine-4-carbonyl)-phenyl]-2,3-dihydro-isoindol-1-one]
pKi: 7.36

O=C(c1cccc(-c2ccc3c(c2)C(=O)N([C@H]2CN4CCC2CC4)C3)c1)N1CCCCC1 [Example 69, 2-(R)-1-Aza-bicyclo[2.2.2]oct-3-yl-6-[3-(piperidine-1-carbonyl)-phenyl]-2,3-dihydro-isoindol-1-one]
pKi: 7.64

O=C(c1cccc(-c2ccc3c(c2)C(=O)N([C@H]2CN4CCC2CC4)C3)c1)N1CCCC1 [Example 70, 2-(R)-1-Aza-bicyclo[2.2.2]oct-3-yl-6-[3-(pyrrolidine-1-carbonyl)-phenyl]-2,3-dihydro-isoindol-1-one]
pKi: 7.85

CN(C)c1cccc(-c2ccc3c(c2)C(=O)N([C@H]2CN4CCC2CC4)C3)c1 [Example 71, 2-(R)-1-Aza-bicyclo[2.2.2]oct-3-yl-6-(3-dimethylamino-phenyl)-2,3-dihydro-isoindol-1-one]
pKi: 8.38

CSc1cccc(-c2ccc3c(c2)C(=O)N([C@H]2CN4CCC2CC4)C3)c1 [Example 72, 2-(R)-1-Aza-bicyclo[2.2.2]oct-3-yl-6-(3-methylsulfanyl-phenyl)-2,3-dihydro-isoindol-1-one]
pKi: 7.43
